{"source": "patent US6423352B1", "about": "(priority 1998, dated 2002)", "type_in_all_cases": "in vivo", "key": {"[1]": {"system": "Erysiphe graminis tritici", "assay": "powdery mildew in wheat: sprayed plants inoculated, diseased leaf area recorded", "conditions": "for % diseased leaf area, wheat powdery mildew, 10 d: Example 14, solvent conc. 1%, inoculation three hours after spray, none (control) 50; for % diseased leaf area, powdery mildew wheat, 8 d: Example 17, none 69", "experimental": "(§1) To test the efficacy of these extracts and suspensions, experiments were performed in which plants were sprayed using a fine glass atomizer with either Inula extract or with pure solvent as a control for the Inula extracts, with either Inula extract and emulsifier or with an emulsifier solution as a control for the emulsified Inula extracts, and with either Inula suspension or with water or emulsifier solution as a control for the Inula suspensions. Treated and control plants were then inoculated with a crop-respective fungal pathogen. After an incubation period, the extent of the infection was measured. Unless otherwise stated, percentage protection from the disease due to the treatment with the Inula extract or suspension was calculated as:\n(§2) % control of the disease=[1−(% infection and treated plants/% infection in control plants)]×100.\nThe crop plants and pathogens used for inoculation are described in the following list.\nInoculation with P. infestants, P. cubensis, P. tabacina, P. viticola, B. cinera and C. fulvum was done by spraying a spore suspension in distilled water onto the upper leaf surfaces of the treated (and the control) plants. Inoculated plants were kept in a dew chamber at 18-20° C. in the dark for 16-20 hours and then in a growth chamber at 20° C. with 12 hours photoperiod. Inoculation with E. graminis and S. fuliginea was done by blowing spores over the treated (and control) plants. Inoculated plants were then kept in a growth chamber as above.\n(§3) Disease records were visually estimated in the inoculated plants at 3-13 days after inoculation, depending on the crop and disease. Percentage leaf area occupied with disease symptoms or fungal colonies was recorded and given in the results section."}, "Phytophthora infestans [2]": {"system": "Phytophthora infestans", "conditions": "for % diseased leaf area, late blight tomato, 5 d: Example 17, none 81; for % diseased leaf area, solvent control: Example 12, late blight in tomato, untreated control 81"}, "[3]": {"system": "Pseudoperonospora cubensis", "assay": "downy mildew in cucumber: sprayed plants inoculated, disease recorded", "conditions": "Example 14; solvent conc. 1%; inoculation three hours after spray; none (control) 88", "experimental": "as §1, §2\nThe crop plants and pathogens used for inoculation are described in the following list. […]\nas §3"}, "Phytophthora infestans [4]": {"system": "Phytophthora infestans", "conditions": "for % diseased leaf area, late blight potato, 5 d: Example 17, none 100; for % Protection, late blight in potato / Diseased leaf area, late blight in potato: Example 2; for Diseased leaf area, late blight in potato: recorded 4 days post inoculation, untreated control 98"}}, "note": "Where two headings read alike, the source gives them in different places.", "data": [{"compound": "tetraethylene", "values": [{"measurement": "% diseased leaf area, wheat powdery mildew, 10 d", "setting": "[1]", "result": 50, "unit": "%"}, {"measurement": "% diseased leaf area, Tomato late blight, 4 d", "setting": "Phytophthora infestans [2]; in vivo", "result": 63, "unit": "%"}, {"measurement": "% diseased leaf area, cucumber downy mildew, 6 d", "setting": "[3]", "result": 31, "unit": "%"}]}, {"compound": "c1c[nH]cn1", "note": "[Imidazole only, imidazole]", "values": [{"measurement": "% diseased leaf area, powdery mildew wheat, 8 d", "setting": "[1]; imidazole only 0.12% pH 9.55", "result": 63, "unit": "%"}, {"measurement": "% diseased leaf area, powdery mildew wheat, 8 d", "setting": "[1]; imidazole only 0.25% pH 9.70", "result": 50, "unit": "%"}, {"measurement": "% diseased leaf area, powdery mildew wheat, 8 d", "setting": "[1]; imidazole only 0.5% pH 9.86", "result": 23, "unit": "%"}, {"measurement": "% diseased leaf area, powdery mildew wheat, 8 d", "setting": "[1]; imidazole only 1% pH 9.95", "result": 25, "unit": "%"}, {"measurement": "% diseased leaf area, late blight potato, 5 d", "setting": "Phytophthora infestans [4]; imidazole only 0.12% pH 9.55", "result": 50, "unit": "%"}, {"measurement": "% diseased leaf area, late blight potato, 5 d", "setting": "Phytophthora infestans [4]; imidazole only 0.25% pH 9.70", "result": 50, "unit": "%"}, {"measurement": "% diseased leaf area, late blight potato, 5 d", "setting": "Phytophthora infestans [4]; imidazole only 0.5% pH 9.86", "result": 25, "unit": "%"}, {"measurement": "% diseased leaf area, late blight potato, 5 d", "setting": "Phytophthora infestans [4]; imidazole only 1% pH 9.95", "result": 18, "unit": "%"}, {"measurement": "% diseased leaf area, late blight tomato, 5 d", "setting": "Phytophthora infestans [2]; imidazole only 0.12% pH 9.55", "result": 95, "unit": "%"}, {"measurement": "% diseased leaf area, late blight tomato, 5 d", "setting": "Phytophthora infestans [2]; imidazole only 0.25% pH 9.70", "result": 88, "unit": "%"}, {"measurement": "% diseased leaf area, late blight tomato, 5 d", "setting": "Phytophthora infestans [2]; imidazole only 0.5% pH 9.86", "result": 69, "unit": "%"}, {"measurement": "% diseased leaf area, late blight tomato, 5 d", "setting": "Phytophthora infestans [2]; imidazole only 1% pH 9.95", "result": 50, "unit": "%"}]}, {"compound": "C1CNCCN1.O", "note": "[piperazine hydrate]", "values": [{"measurement": "% diseased leaf area, solvent control", "setting": "Phytophthora infestans [2]; solvent alone 0.05M", "result": 81, "unit": "%"}, {"measurement": "% diseased leaf area, solvent control", "setting": "Phytophthora infestans [2]; solvent alone 0.1M", "result": 81, "unit": "%"}]}, {"compound": "N.O", "note": "[NH4OH, ammonium hydroxide]", "values": [{"measurement": "% Protection, late blight in potato", "setting": "Phytophthora infestans [4]; NH4OH 1%", "result": 0, "unit": "%"}, {"measurement": "Diseased leaf area, late blight in potato", "setting": "Phytophthora infestans [4]; NH4OH 1%", "result": 100}, {"measurement": "% Protection, late blight in potato", "setting": "Phytophthora infestans [4]; NH4OH 2%", "result": 0, "unit": "%"}, {"measurement": "Diseased leaf area, late blight in potato", "setting": "Phytophthora infestans [4]; NH4OH 2%", "result": 100}, {"measurement": "% Protection, late blight in potato", "setting": "Phytophthora infestans [4]; NH4OH 4%", "result": 0, "unit": "%"}, {"measurement": "Diseased leaf area, late blight in potato", "setting": "Phytophthora infestans [4]; NH4OH 4%", "result": 100}, {"measurement": "% Protection, late blight in potato", "setting": "Phytophthora infestans [4]; NH4OH 8% (= 2% aqueous NH3)", "result": 0, "unit": "%"}, {"measurement": "Diseased leaf area, late blight in potato", "setting": "Phytophthora infestans [4]; NH4OH 8% (= 2% aqueous NH3), inoculated 2 days after spray", "result": 100}]}, {"compound": "C1CCNCC1", "note": "[piperidine]", "values": [{"measurement": "% diseased leaf area, wheat powdery mildew, 10 d", "setting": "[1]", "result": 25, "unit": "%"}, {"measurement": "% diseased leaf area, Tomato late blight, 4 d", "setting": "Phytophthora infestans [2]; Example 14, solvent conc. 1%, inoculation three hours after spray, none (control) 88", "result": 88, "unit": "%"}, {"measurement": "% diseased leaf area, cucumber downy mildew, 6 d", "setting": "[3]", "result": 94, "unit": "%"}]}]}
